Results on 6 compounds are retold here after patent US12398154B2, “Azaquinazoline pan-KRas inhibitors” (Mirati Therapeutics, Inc., priority 2020, dated 2025).

Targets include KRas G12C (Homo sapiens, UniProt P01116, G12C); KRas G12S (Homo sapiens, UniProt P01116, G12S); KRas G12R (Homo sapiens, UniProt P01116, G12R); KRas G12D (Homo sapiens, UniProt P01116, G12D); KRas WT (Homo sapiens, UniProt P01116); KRas G12A (Homo sapiens, UniProt P01116, G12A); KRas G12V (Homo sapiens, UniProt P01116, G12V).
Assay in all cases: biochemical

Structures are written as SMILES.

Chain of KRas G12V (P01116 1-169 isoform P01116-2 G12V): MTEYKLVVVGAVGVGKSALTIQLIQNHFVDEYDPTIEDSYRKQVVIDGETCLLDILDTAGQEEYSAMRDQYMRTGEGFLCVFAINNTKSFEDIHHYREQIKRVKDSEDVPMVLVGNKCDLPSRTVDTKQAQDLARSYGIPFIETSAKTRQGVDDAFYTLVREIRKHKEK
Chain of KRas WT (P01116 1-169 isoform P01116-2): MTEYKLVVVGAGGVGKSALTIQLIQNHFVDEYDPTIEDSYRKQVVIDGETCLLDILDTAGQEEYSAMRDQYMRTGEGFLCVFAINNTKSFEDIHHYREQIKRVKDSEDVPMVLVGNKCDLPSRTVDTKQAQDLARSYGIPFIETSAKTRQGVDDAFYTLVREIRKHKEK
Chain of KRas G12A (P01116 1-169 isoform P01116-2 G12A): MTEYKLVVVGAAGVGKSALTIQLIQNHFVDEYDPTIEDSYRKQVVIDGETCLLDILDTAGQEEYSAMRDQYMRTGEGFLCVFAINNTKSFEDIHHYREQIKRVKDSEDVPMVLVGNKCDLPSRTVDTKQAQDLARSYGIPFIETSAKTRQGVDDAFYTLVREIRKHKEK
Chain of KRas G12D (P01116 1-169 isoform P01116-2 G12D): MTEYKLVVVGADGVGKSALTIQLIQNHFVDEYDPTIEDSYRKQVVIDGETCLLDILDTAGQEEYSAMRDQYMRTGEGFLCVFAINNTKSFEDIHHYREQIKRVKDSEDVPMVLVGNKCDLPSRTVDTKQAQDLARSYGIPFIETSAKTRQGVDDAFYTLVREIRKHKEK
Chain of KRas G12C (P01116 1-169 isoform P01116-2 G12C): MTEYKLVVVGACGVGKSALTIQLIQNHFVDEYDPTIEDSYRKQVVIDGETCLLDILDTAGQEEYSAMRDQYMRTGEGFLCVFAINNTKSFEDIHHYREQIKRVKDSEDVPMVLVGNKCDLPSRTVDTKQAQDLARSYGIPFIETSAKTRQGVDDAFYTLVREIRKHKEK
Chain of KRas G12S (P01116 1-169 isoform P01116-2 G12S): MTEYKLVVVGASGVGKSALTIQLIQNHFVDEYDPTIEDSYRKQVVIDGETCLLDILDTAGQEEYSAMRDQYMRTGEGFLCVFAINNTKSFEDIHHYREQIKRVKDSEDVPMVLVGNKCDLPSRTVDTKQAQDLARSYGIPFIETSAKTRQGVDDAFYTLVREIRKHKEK
Chain of KRas G12R (P01116 1-169 isoform P01116-2 G12R): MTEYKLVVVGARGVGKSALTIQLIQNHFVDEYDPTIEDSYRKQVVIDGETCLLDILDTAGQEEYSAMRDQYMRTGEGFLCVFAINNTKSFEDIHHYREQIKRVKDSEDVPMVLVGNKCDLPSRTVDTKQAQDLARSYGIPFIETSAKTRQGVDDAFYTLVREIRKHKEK

The IC50 is the concentration at which inhibition is half-maximal. High values mean weaker potency, low ones greater potency. Turning to `NS(=O)(=O)CC1CCCN(c2nc(OCC34CCCN3CCC4)nc3c(F)c(-c4cccc5cccc(Cl)c45)ncc23)C1` (stereo not drawn) [Example 281, 1-(1-(7-(8-chloronaphthalen-1-yl)-8-fluoro-2-((tetrahydro-1H-pyrrolizin-7a(5H)-yl)methoxy)pyrido[4,3-d]pyrimidin-4-yl)piperidin-3-yl)methanesulfonamide], the IC50 at KRas G12C was 0.075 µM; at KRas G12S, 0.067 µM; at KRas G12R, 0.081 µM; at KRas G12D, 0.213 µM; against KRas WT, 0.061 µM; against KRas G12A, 0.059 µM. Also, on KRas G12V, 0.17 µM corresponded to half-maximal inhibition (IC50).
Turning to `CCc1cccc2cccc(-c3ncc4c(N5CCCC(CS(N)(=O)=O)C5)nc(OCC56CCCN5CCC6)nc4c3F)c12` (stereo not drawn) [Example 285, 1-(1-(7-(8-ethylnaphthalen-1-yl)-8-fluoro-2-((tetrahydro-1H-pyrrolizin-7a(5H)-yl)methoxy)pyrido[4,3-d]pyrimidin-4-yl)piperidin-3-yl)methanesulfonamide], the IC50 against KRas G12C was 0.426 µM; at KRas G12S it was 0.359 µM; on KRas G12R it was 0.35 µM; on KRas G12D, 0.976 µM; against KRas WT, 0.323 µM; against KRas G12A, 0.367 µM. In addition, at KRas G12V, the half-maximal inhibitory concentration (IC50) was found to be 0.864 µM.
In the case of `NC(=O)C(O)CNc1nc(OCC23CCCN2CCC3)nc2c(F)c(-c3cccc4cccc(Cl)c34)ncc12` (stereo not drawn) [Example 475, 3-((7-(8-chloronaphthalen-1-yl)-8-fluoro-2-((tetrahydro-1H-pyrrolizin-7a(5H)-yl)methoxy)pyrido[4,3-d]pyrimidin-4-yl)amino)-2-hydroxypropanamide], the half-maximal inhibitory concentration (IC50) against KRas G12C is 2.75 µM; against KRas G12S it was 2.75 µM; at KRas G12R, 2.62 µM; at KRas G12D, 8.55 µM; against KRas WT, 4.6 µM; against KRas G12A, 3.68 µM. Besides, the IC50 at KRas G12V was 1.46 µM.
Turning to `O=C1NCC2(CCCN(c3nc(OCC45CCCN4CCC5)nc4c(F)c(-c5cccc6cccc(CO)c56)ncc34)C2)N1` (stereo not drawn) [Example 453, 7-(8-fluoro-2-((hexahydro-1H-pyrrolizin-7a-yl)methoxy)-7-(8-(hydroxymethyl)naphthalen-1-yl)pyrido[4,3-d]pyrimidin-4-yl)-1,3,7-triazaspiro[4.5]decan-2-one], the half-maximal inhibitory concentration (IC50) against KRas G12C was 0.484 µM; on KRas G12S, 0.459 µM; at KRas G12R, 1.12 µM; at KRas G12D it was 0.274 µM; against KRas WT, 0.467 µM; against KRas G12A, 0.559 µM. Also, the IC50 on KRas G12V is 0.569 µM.
As for `Cc1cccc2cccc(-c3ncc4c(N5CCCC(CS(N)(=O)=O)C5)nc(OCC56CCCN5CCC6)nc4c3F)c12` (stereo not drawn) [Example 438, 1-(1-(8-fluoro-2-((hexahydro-1H-pyrrolizin-7a-yl)methoxy)-7-(8-methylnaphthalen-1-yl)pyrido[4,3-d]pyrimidin-4-yl)piperidin-3-yl)methanesulfonamide], the IC50 is 0.13 µM against KRas G12C; 0.106 µM against KRas G12S; 0.099 µM against KRas G12R; 0.238 µM against KRas G12D; 0.095 µM against KRas WT; 0.109 µM on KRas G12A. On KRas G12V, this compound came in with an IC50 of 0.239 µM.
Consider `O=C1CC2(CCCN(c3nc(OCC45CCCN4CCC5)nc4c(F)c(-c5cccc6cccc(CCF)c56)ncc34)C2)N1` (stereo not drawn) [Example 470, 6-(8-fluoro-7-(8-(2-fluoroethyl)naphthalen-1-yl)-2-((hexahydro-1H-pyrrolizin-7a-yl)methoxy)pyrido[4,3-d]pyrimidin-4-yl)-1,6-diazaspiro[3.5]nonan-2-one], for which the IC50 was determined as 0.348 µM against KRas G12C; 0.341 µM against KRas G12S; 0.503 µM against KRas G12R; 0.406 µM against KRas G12D; 0.475 µM on KRas WT; 0.347 µM against KRas G12A. Besides, at KRas G12V, half-maximal inhibition (IC50) required 0.355 µM.
